The source of these data is US20210300924A1, “5-[6-[[3-(4,5,6,7-TETRAHYDROPYRAZOLO[4,3-C]PYRIDIN-1-YL)AZETIDIN-1-YL]METHYL]MORPHOLIN-4-YL]QUINOLINE-8-CARBONITRILE DERIVATIVES AND SIMILAR COMPOUNDS AS TLR7-9 ANTAGONISTS FOR TREATING SYSTEMIC LUPUS ERYTHEMATOSUS” (Hoffmann-La Roche Inc., priority 2018, published 2021).

Series [1] concerns the target T1, TLR9 (Homo sapiens, UniProt Q9NR96).
T1 sequence (Q9NR96 26-1032): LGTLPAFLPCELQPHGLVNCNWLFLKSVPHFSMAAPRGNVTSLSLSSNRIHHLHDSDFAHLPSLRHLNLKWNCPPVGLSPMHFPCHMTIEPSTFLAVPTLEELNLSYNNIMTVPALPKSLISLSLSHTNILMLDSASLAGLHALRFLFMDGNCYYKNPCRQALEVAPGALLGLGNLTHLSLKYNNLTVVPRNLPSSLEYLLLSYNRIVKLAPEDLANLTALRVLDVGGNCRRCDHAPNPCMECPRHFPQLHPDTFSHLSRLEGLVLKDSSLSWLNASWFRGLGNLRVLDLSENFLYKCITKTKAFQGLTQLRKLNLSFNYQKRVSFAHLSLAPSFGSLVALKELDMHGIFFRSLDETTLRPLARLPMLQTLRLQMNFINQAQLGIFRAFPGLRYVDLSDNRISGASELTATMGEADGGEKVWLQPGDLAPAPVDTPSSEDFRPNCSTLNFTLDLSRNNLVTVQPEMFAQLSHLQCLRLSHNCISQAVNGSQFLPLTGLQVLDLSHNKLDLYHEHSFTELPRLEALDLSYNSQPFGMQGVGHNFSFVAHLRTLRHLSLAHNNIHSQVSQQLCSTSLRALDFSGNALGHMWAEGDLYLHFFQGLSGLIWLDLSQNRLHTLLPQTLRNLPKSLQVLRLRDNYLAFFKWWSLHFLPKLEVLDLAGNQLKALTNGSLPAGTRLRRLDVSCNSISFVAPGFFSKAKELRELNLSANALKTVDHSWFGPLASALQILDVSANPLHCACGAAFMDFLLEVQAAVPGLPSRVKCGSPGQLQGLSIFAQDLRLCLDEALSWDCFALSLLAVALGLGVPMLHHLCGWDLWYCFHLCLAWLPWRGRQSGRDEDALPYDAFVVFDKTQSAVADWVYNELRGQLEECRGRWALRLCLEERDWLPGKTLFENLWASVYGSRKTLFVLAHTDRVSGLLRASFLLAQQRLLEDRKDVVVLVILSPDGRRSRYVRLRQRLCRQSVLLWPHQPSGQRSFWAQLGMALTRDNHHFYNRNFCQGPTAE
The series is described as follows: HEK293-Blue-hTLR-9 cells assay. Details: host or cells: HEK293 (HEK-Blue hTLR9). The settings on record: HEK293-Blue-hTLR9 cells, ODN2006 stimulation, 20 hrs, SEAP reporter; read-out: HEK/hTLR9 IC50. Format: cell-based. The text has this: HEK293-Blue-hTLR-9 Cells Assay:
A stable HEK293-Blue-hTLR-9 cell line was purchased from InvivoGen (Cat. #: hkb-htlr9, San Diego, Calif., USA). These cells were originally designed for studying the stimulation of human TLR9 by monitoring the activation of NF-κB. A SEAP (secreted embryonic alkaline phosphatase) reporter gene was placed under the control of the IFN-β minimal promoter fused to five NF-κB and AP-1-binding sites. The SEAP was induced by activating NF-κB and AP-1 via stimulating HEK-Blue hTLR9 cells with TLR9 ligands. Therefore the reporter expression was declined by TLR9 antagonist under the stimulation of a ligand, such as ODN2006 (Cat. #: tlr1-2006-1, Invivogen, San Diego, Calif., USA), for incubation of 20 hrs. The cell culture supernatant SEAP reporter activity was determined using QUANTI-Blue™ kit (Cat. #: rep-01, Invivogen, San Diego, Calif., USA) at a wavelength of 640 nm, a detection medium that turns purple or blue in the presence of alkaline phosphatase.
HEK293-Blue-hTLR9 cells were incubated at a density of 250,000-450,000 cells/mL in a volume of 170 μL in a 96-well plate in Dulbecco's Modified Eagle's medium (DMEM) containing 4.5 g/L glucose, 50 U/mL penicillin, […], 2 mM L-glutamine, 10% (v/v) heat-inactivated fetal bovine serum with addition of 20 μL test compound in a serial dilution in the presence of final DMSO at 1% and 10 μL of 20 uM ODN2006 in above DMEM, perform incubation under 37° C. in a CO2 incubator for 20 hrs. Then 20 μL of the supernatant from each well was incubated with 180 μL Quanti-blue substrate solution at 37° C. for 2 h and the absorbance was read at 620-655 nm using a spectrophotometer. The signaling pathway that TLR9 activation leads to downstream NF-κB activation has been widely accepted, and therefore similar reporter assay was modified for evaluating TLR9 antagonist.

Series [2] deals with T2, CYP2D6 (Homo sapiens, UniProt P10635).
T2 construct: tissue BD-Gentest 452117; host or cells: human liver microsomes
The series is described as follows: CYP inhibition assay in human liver microsome. It counts as in vitro ADME. The settings on record: human liver microsomes, probe dextromethorphan, dextromethorphan substrate, percentage inhibition <0: not or weak inhibitor, read-out: CYP 2D6 inhibition % @ 10 μM. As to the method:
This is a high throughput screening assay used for assessment of reversible inhibition of CYP2D6 activity of test compounds in human liver microsome (HLM) in early discovery stage.
10 mM DMSO stock solutions of test compounds were diluted in DMSO to generate 2 mM intermediate stock solution. 250 nL of intermediate stock solution were transferred in duplicate into 3 separate 384 well microtitre plates (assay-ready plates). A mixture of HLM and each substrate was made up. 45 μL of HLM substrate mix was then transferred to each well of an assay ready plate and mixed. The negative (solvent) and positive control (standard inhibitor for CYP 2D6) were included in each assay ready plate. The assay ready plate was warmed to 37° C. in an incubator over 10 minutes. 5 μL pre-warmed NADPH regenerating system was added to each incubation well to start the reaction. Final incubation volume was 50 μL. The assay plate then was placed back in the 37° C. incubator. After 10 minutes incubation, incubates were quenched by addition of 50 μL 100% acetonitrile containing internal standards (20 ng/mL D3-Dextrorphan). The supernatants were collected for RapidFire/MS/MS analysis.
RapidFire online solid phase extraction/sample injection system (Agilent) coupled with API4000 triple quadrupole mass spectrometer (AB Sciex) were used for sample analysis. The mobile phase composed of acetonitrile and water supplemented with 0.1% formic acid. A C4 solid phase extraction cartridge is used for sample separation. MS detection is achieved in positive ion MRM mode.
Peak areas for substrate, metabolite and internal standard are determined using the RapidFire integrator software (version 3.6.12009.12296). Peak area ratios (PAR) of metabolite and internal standard (stable-labelled metabolite) are then calculated. The measurement window for each experiment is then defined:
PAR (0% activity)=average PAR for all incubations containing concentrated inhibitor;
Par (100% activity)=average PAR for all incubations containing no inhibitor (DMSO controls);
% Activity (test inhibitor)=
[PAR(test inhibitor)−PAR(0% activity)]/[PAR(100% activity)−PAR(0% activity)]; % Inhibition (test inhibitor)=100−% Activity (test inhibitor).
(Liver microsomes are vesicles of endoplasmic reticulum, rich in cytochrome P450 enzymes.)

T2 sequence (P10635 whole entry): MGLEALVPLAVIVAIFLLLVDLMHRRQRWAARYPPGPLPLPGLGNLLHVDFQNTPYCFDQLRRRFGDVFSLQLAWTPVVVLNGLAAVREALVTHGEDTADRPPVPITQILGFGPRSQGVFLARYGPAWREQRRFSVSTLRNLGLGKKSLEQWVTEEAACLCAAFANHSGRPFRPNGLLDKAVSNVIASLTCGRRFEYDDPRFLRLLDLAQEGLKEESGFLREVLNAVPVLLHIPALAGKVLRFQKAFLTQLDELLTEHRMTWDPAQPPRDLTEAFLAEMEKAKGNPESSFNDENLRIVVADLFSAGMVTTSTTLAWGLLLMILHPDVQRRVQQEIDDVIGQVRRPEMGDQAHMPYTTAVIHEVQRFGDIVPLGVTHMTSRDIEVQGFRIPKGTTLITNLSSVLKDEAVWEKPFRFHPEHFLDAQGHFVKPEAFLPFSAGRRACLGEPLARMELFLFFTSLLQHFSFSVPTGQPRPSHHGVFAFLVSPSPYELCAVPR

One may read the inhibition as the drop in the measured response relative to a control, in per cent. Regarding `C[C@@H]1CN(c2ccc(C#N)c3ncccc23)C[C@H](CN2CC(n3cc4c(n3)CCN[C@@H]4C)C2)O1` [Example 21, 5-[(2R,6S)-2-methyl-6-[[3-[(4R)-4-methyl-4,5,6,7-tetrahydropyrazolo[4,3-c]pyridin-2-yl]azetidin-1-yl]methyl]morpholin-4-yl]quinoline-8-carbonitrile], the IC50 in series [1] turned out to be 0.08 µM. Besides, in series [2], the inhibition at 10 min, 10 µM is 10.5%.

As to `C[C@@H]1CN(c2ccc(C#N)c3ncccc23)C[C@H](CN2CC(n3cc4c(n3)CN(C)CC4)C2)O1` [Example 5, 5-[(2R,6S)-2-methyl-6-[[3-(6-methyl-5,7-dihydro-4H-pyrazolo[3,4-c]pyridin-2-yl)azetidin-1-yl]methyl]morpholin-4-yl]quinoline-8-carbonitrile], in series [1], the IC50 came out at 0.137 µM. The inhibition at 10 min, 10 µM in series [2] is -1.5%.

Consider `C[C@@H]1CN(c2ccc(C#N)c3ncccc23)C[C@H](CN2CC(n3cc4c(n3)CNC4)C2)O1` [Example 11, 5-[(2S,6R)-2-[[3-(5,6-dihydro-4H-pyrrolo[3,4-c]pyrazol-2-yl)azetidin-1-yl]methyl]-6-methyl-morpholin-4-yl]quinoline-8-carbonitrile], for which, in series [1], the IC50 was 0.049 µM. For the same molecule, the inhibition at 10 min, 10 µM in series [2] was -6%.

Consider `Cc1nn(C2CN(C[C@H]3CN(c4ccc(C#N)c5ncccc45)C[C@@H](C)O3)C2)c2c1CNCC2` [Example 12, 5-[(2R,6S)-2-methyl-6-[[3-(3-methyl-4,5,6,7-tetrahydropyrazolo[4,3-c]pyridin-1-yl)azetidin-1-yl]methyl]morpholin-4-yl]quinoline-8-carbonitrile], for which the IC50 in series [1] worked out at 0.078 µM. The inhibition at 10 min, 10 µM in series [2] is 6%.

For `C[C@@H]1Cc2c(cnn2C2CN(C[C@H]3CN(c4ccc(C#N)c5ncccc45)C[C@@H](C)O3)C2)CN1` [Example 16, 5-[(2R,6S)-2-methyl-6-[[3-[(6R)-6-methyl-4,5,6,7-tetrahydropyrazolo[4,3-c]pyridin-1-yl]azetidin-1-yl]methyl]morpholin-4-yl]quinoline-8-carbonitrile], the IC50 in series [1] amounted to 0.078 µM. Besides, the inhibition at 10 min, 10 µM in series [2] worked out at 8%.

For `C[C@@H]1CN(c2ccc(C#N)c3ncccc23)C[C@H](CN2CC(n3ncc4c3CN[C@@H](C)C4)C2)O1` (single isomer, unassigned) [Example 27], in series [1], the IC50 is 0.065 µM. Also, the inhibition at 10 min, 10 µM in series [2] came to 22%.

For the molecule `CC(C)N1CCc2cnn(C3CN(C[C@H]4CN(c5ccc(C#N)c6ncccc56)C[C@@H](C)O4)C3)c2C1` [Example 8, 5-[(2S,6R)-2-[[3-(6-isopropyl-5,7-dihydro-4H-pyrazolo[3,4-c]pyridin-1-yl)azetidin-1-yl]methyl]-6-methyl-morpholin-4-yl]quinoline-8-carbonitrile], the IC50 in series [1] stood at 0.125 µM. Also, the inhibition at 10 min, 10 µM in series [2] is 11%.
